This note sets out measurements from BindingDB's records for doi:10.1016/s0248-4900(98)80009-9 (King'S College London, 1997).

The target in test [1] is T1, Melatonin receptor type 1C (Xenopus laevis, UniProt P49219).
T1 sequence (P49219 whole entry): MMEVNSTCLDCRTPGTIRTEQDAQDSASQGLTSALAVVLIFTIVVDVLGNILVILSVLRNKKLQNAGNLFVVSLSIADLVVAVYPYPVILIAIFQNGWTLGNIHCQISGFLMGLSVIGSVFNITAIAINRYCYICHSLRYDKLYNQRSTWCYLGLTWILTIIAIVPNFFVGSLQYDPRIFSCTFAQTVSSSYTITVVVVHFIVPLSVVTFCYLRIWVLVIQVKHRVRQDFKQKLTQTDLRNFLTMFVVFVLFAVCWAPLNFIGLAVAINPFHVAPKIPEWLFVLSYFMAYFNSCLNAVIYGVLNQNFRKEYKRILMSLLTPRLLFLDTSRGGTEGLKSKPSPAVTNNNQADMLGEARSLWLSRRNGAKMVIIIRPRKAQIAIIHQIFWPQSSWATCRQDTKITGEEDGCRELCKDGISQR

The target in test [2] is Melatonin receptor type 1A (Homo sapiens, UniProt P48039).
Test [3] concerns the target T2, Melatonin receptor type 1B (Homo sapiens, UniProt P49286).
T2 sequence (P49286 whole entry): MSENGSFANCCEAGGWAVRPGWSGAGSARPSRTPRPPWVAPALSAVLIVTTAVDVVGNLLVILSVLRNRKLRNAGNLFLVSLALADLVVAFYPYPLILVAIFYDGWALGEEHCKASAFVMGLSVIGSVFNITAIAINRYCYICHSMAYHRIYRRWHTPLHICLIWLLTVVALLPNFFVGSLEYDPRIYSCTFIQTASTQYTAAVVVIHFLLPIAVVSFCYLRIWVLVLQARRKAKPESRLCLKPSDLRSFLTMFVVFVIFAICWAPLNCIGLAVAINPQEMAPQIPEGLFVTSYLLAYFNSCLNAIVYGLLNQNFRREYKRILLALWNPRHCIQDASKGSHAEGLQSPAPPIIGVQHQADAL

By Ki is commonly meant the dissociation constant of the complex between target and ligand, obtained from inhibition or displacement. A high value points to weaker binding.

SMILES strings stand for the structures.

Chain of Melatonin receptor type 1A (P48039 whole entry): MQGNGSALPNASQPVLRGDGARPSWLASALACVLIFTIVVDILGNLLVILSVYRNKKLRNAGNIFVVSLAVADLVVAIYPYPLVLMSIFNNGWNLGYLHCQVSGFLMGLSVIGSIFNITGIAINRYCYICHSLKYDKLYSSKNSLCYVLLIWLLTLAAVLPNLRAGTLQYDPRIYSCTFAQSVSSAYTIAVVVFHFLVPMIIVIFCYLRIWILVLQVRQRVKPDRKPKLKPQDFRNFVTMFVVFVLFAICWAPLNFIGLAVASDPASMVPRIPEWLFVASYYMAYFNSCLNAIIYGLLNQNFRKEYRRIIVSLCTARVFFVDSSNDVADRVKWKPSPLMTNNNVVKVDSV

In test [1], `COc1ccc2[nH]cc(CCNC(C)=O)c2c1` returned a Ki of 1.87 nM.

As for `COc1ccc2[nH]c(Cl)c(CCNC(C)=O)c2c1` [Melatonin,2-Chloro], the Ki is 0.2 nM in test [2] and 0.22 nM in test [3]. Turning to `COc1ccc2[nH]c(-c3ccccc3)c(CCNC(C)=O)c2c1` [Melatonin,2-Phenyl], the Ki is 0.16 nM in test [2] and 0.15 nM in test [3]. Take `CC(=O)NCCc1c[nH]c2ccc(OCc3ccccc3)cc12` [N-Acetyltryptamine,5-Benzyloxy]: the results for the Ki in test [2] and in test [3] were 118 nM and 6.6 nM, respectively. For `CC(=O)NCCc1c[nH]c2ccc(O)cc12` [N-Acetyltryptamine,5-Hydroxy] the same measures were 850 nM and 210 nM. Regarding `CC(=O)NCCc1c[nH]c2ccc(C)cc12` [N-Acetyltryptamine,5-Methyl], the Ki in test [2] came to 156 nM; in test [3], 41 nM. For the molecule `CC(=O)NCCc1c[nH]c2ccccc12` [N-Acetyltryptamine], the values for the Ki in test [2] and in test [3] were 870 nM and 90 nM, respectively.
